Measured values as given in patent US20240360137A1 (Novartis AG, priority 2023, published 2024).

What was measured:
Assay in all cases: CDKi biochemical assay (TR-FRET, phosphorylation of S780 on RB1 peptide)
[1] = target: CDK4/cyclinD1 (Homo sapiens, UniProt P11802); conditions: CDK4/cyclinD1 20 pM, 1 mM ATP, 60 min at 25° C.
How it was run: (§1)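 Avi-tagged, biotinylated CDK4/cyclinD1 (20 pM) or CDK6/cyclinD3 (10 pM) phosphorylates 200 nM His-MBP-RB1[773-924] at S780 with 1 mM ATP in HEPES pH 7.5/MgCl2, 60 min, 25° C. After EDTA quench, Eu anti-pRB(S780)/SA-APC TR-FRET is read after 3 h. Apparent IC50 comes from % activity versus log concentration.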

[2] = target: CDK6/cyclinD3 (Homo sapiens, UniProt Q00534); conditions: CDK6/cyclinD3 10 pM, 1 mM ATP, 60 min at 25° C.
How it was run: as §1

[3] = target: CDK1/CyclinB1 (Homo sapiens, UniProt P06493); conditions: CDK1/CyclinB1 10 pM, 1 mM ATP, 60 min at 25° C.
How it was run: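 CDK1/CyclinB1 (10 pM, Avi-tagged, insect-cell expressed) phosphorylated S780 of His-MBP-RB1[773-924] (200 nM) with 1 mM ATP in HEPES pH 7.5, 10 mM MgCl2, 1 mM DTT, 60 min at 25 °C. After EDTA quench, TR-FRET detection (Eu anti-pRB S780, SA-APC) for 3 h; apparent IC50 from percent activity versus log concentration.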

[4] = target: CDK2/CyclinE1 (Homo sapiens, UniProt P24941); conditions: CDK2/CyclinE1 100 pM, 1 mM ATP, 60 min at 25° C.
How it was run: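 CDK2/CyclinE1 (Avi-tag, 100 pM; CDK2 E. coli-expressed) phosphorylated His-MBP-RB1[773-924] (200 nM) at S780 with 1 mM ATP in HEPES pH 7.5/MgCl2/DTT, 60 min at 25° C. After EDTA quench, TR-FRET detection ran 3 h (Eu anti-p-RB S780, SA-APC). Apparent IC50 came from percent activity versus log concentration.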

SMILES | IC50 [1] [nM] | IC50 [2] [nM] | IC50 [3] [nM] | IC50 [4] [nM]
O=C1N([C@@H]2CCC[C@@H](O)C2)c2nc(Nc3c[nH]nc3OC3CC(F)(F)C3)ncc2C12CC2 [Example 29, 2′-((3-(3,3-difluorocyclobutoxy)-1H-pyrazol-4-yl)amino)-7′-((1R,3R)-3-hydroxycyclohexyl)spiro[cyclopropane-1,5′-pyrrolo[2,3-d]pyrimidin]-6′(7′H)-one] | 7400 | ≥ 10000 | 3840 | 26
O=C1N([C@@H]2CCC[C@@H](O)C2)c2nc(Nc3c[nH]nc3C3CCOC3)ncc2C12CC2 (stereo partly drawn) [Example 8, 7′-((1R,3R)-3-hydroxycyclohexyl)-2′-((3-(tetrahydrofuran-3-yl)-1H-pyrazol-4-yl)amino)spiro[cyclopropane-1,5′-pyrrolo[2,3-d]pyrimidin]-6′(7′H)-one] | ≥ 10000 | ≥ 10000 | ≥ 10000 | 234
CN1C[C@H](Oc2n[nH]cc2Nc2ncc3c(n2)N([C@@H]2CCC[C@@H](O)C2)C(=O)C32CC2)[C@@H](F)C1 [Example 51, 2′-((3-(((3S,4S)-4-fluoro-1-methylpyrrolidin-3-yl)oxy)-1H-pyrazol-4-yl)amino)-7′-((1R,3R)-3-hydroxycyclohexyl)spiro[cyclopropane-1,5′-pyrrolo[2,3-d]pyrimidin]-6′(7′H)-one] | ≥ 10000 | ≥ 10000 | ≥ 10000 | 119
Cc1c(-c2n[nH]cc2Nc2ncc3c(n2)N([C@@H]2CCC[C@@H](O)C2)C(=O)C32CC2)cnn1C [Example 37, 2′-((1′,5′-dimethyl-1H,1′H-[3,4′-bipyrazol]-4-yl)amino)-7′-((1R,3R)-3-hydroxycyclohexyl)spiro[cyclopropane-1,5′-pyrrolo[2,3-d]pyrimidin]-6′(7′H)-one] | ≥ 10000 | ≥ 10000 | ≥ 10000 | 31
O=C1N([C@@H]2CCC[C@@H](O)C2)c2nc(Nc3c[nH]nc3O[C@H]3COC[C@@H]3F)ncc2C12CC2 [Example 25, 2′-((3-(((3S,4S)-4-fluorotetrahydrofuran-3-yl)oxy)-1H-pyrazol-4-yl)amino)-7′-((1R,3R)-3-hydroxycyclohexyl)spiro[cyclopropane-1,5′-pyrrolo[2,3-d]pyrimidin]-6′(7′H)-one] | ≥ 10000 | ≥ 10000 | 2440 | 24
O=C1N([C@@H]2CCC[C@@H](O)C2)c2nc(Nc3c[nH]nc3C(F)(F)F)ncc2C12CC2 [Example 15, 7′-((1R,3R)-3-hydroxycyclohexyl)-2′-((3-(trifluoromethyl)-1H-pyrazol-4-yl)amino)spiro[cyclopropane-1,5′-pyrrolo[2,3-d]pyrimidin]-6′(7′H)-one] | ≥ 10000 | ≥ 10000 | 3720 | 39
Cn1cc(Oc2n[nH]cc2Nc2ncc3c(n2)N([C@@H]2CCC[C@@H](O)C2)C(=O)C32CC2)cn1 [Example 35, 7′-((1R,3R)-3-hydroxycyclohexyl)-2′-((3-((1-methyl-1H-pyrazol-4-yl)oxy)-1H-pyrazol-4-yl)amino)spiro[cyclopropane-1,5′-pyrrolo[2,3-d]pyrimidin]-6′(7′H)-one] | ≥ 10000 | ≥ 10000 | 3160 | 54

Further lines, results first:

IC50 [1] [nM] | IC50 [2] [nM] | IC50 [3] [nM] | IC50 [4] [nM] | SMILES
≥ 10000 | ≥ 10000 | ≥ 10000 | 109 | O=C1N([C@@H]2CCC[C@@H](O)C2)c2nc(Nc3c[nH]nc3OC3CN(CC(F)(F)F)C3)ncc2C12CC2 [Example 46, 7′-((1R,3R)-3-hydroxycyclohexyl)-2′-((3-((1-(2,2,2-trifluoroethyl)azetidin-3-yl)oxy)-1H-pyrazol-4-yl)amino)spiro[cyclopropane-1,5′-pyrrolo[2,3-d]pyrimidin]-6′(7′H)-one]
≥ 10000 | ≥ 10000 | ≥ 10000 | 251 | O=C1N([C@@H]2CCC[C@@H](O)C2)c2nc(Nc3c[nH]nc3-c3ccncc3)ncc2C12CC2 [Example 59, 7′-((1R,3R)-3-hydroxycyclohexyl)-2′-((3-(pyridin-4-yl)-1H-pyrazol-4-yl)amino)spiro[cyclopropane-1,5′-pyrrolo[2,3-d]pyrimidin]-6′(7′H)-one]
1230 | 1800 | 2360 | 49 | COCCn1cc(Nc2ncc3c(n2)N([C@@H]2CCC[C@@H](O)C2)C(=O)C32CC2)cn1 [Example 16, 7′-((1R,3R)-3-hydroxycyclohexyl)-2′-((1-(2-methoxyethyl)-1H-pyrazol-4-yl)amino)spiro[cyclopropane-1,5′-pyrrolo[2,3-d]pyrimidin]-6′(7′H)-one]
7370 | 7900 | 2240 | 20 | COc1n[nH]cc1Nc1ncc2c(n1)N([C@@H]1CCC[C@@H](O)C1)C(=O)C21CC1 [Example 12, 7′-((1R,3R)-3-hydroxycyclohexyl)-2′-((3-methoxy-1H-pyrazol-4-yl)amino)spiro[cyclopropane-1,5′-pyrrolo[2,3-d]pyrimidin]-6′(7′H)-one]
6300 | 9700 | 6570 | 21 | Cn1ncc(-c2n[nH]cc2Nc2ncc3c(n2)N([C@@H]2CCC[C@@H](O)C2)C(=O)C32CC2)c1C(F)F [Example 31, 2′-((5′-(difluoromethyl)-1′-methyl-1H,1′H-[3,4′-bipyrazol]-4-yl)amino)-7′-((1R,3R)-3-hydroxycyclohexyl)spiro[cyclopropane-1,5′-pyrrolo[2,3-d]pyrimidin]-6′(7′H)-one]
9450 | ≥ 10000 | 2430 | 15 | CCOc1n[nH]cc1Nc1ncc2c(n1)N([C@@H]1CCC[C@@H](O)C1)C(=O)C21CC1 [Example 23, 2′-((3-ethoxy-1H-pyrazol-4-yl)amino)-7′-((1R,3R)-3-hydroxycyclohexyl)spiro[cyclopropane-1,5′-pyrrolo[2,3-d]pyrimidin]-6′(7′H)-one]
6100 | 9200 | 1040 | 8 | O=C1N([C@@H]2CCC[C@@H](O)C2)c2nc(Nc3c[nH]nc3OCC3CC3)ncc2C12CC2 [Example 38, 2′-((3-(cyclopropylmethoxy)-1H-pyrazol-4-yl)amino)-7′-((1R,3R)-3-hydroxycyclohexyl)spiro[cyclopropane-1,5′-pyrrolo[2,3-d]pyrimidin]-6′(7′H)-one]
1230 | 3500 | 770 | 11 | O=C1N([C@@H]2CCC[C@@H](O)C2)c2nc(Nc3c[nH]nc3OCC3(F)CC3)ncc2C12CC2 [Example 45, 2′-((3-((1-fluorocyclopropyl)methoxy)-1H-pyrazol-4-yl)amino)-7′-((1R,3R)-3-hydroxycyclohexyl)spiro[cyclopropane-1,5′-pyrrolo[2,3-d]pyrimidin]-6′(7′H)-one]
2160 | 2660 | 660 | 8 | N#Cc1n[nH]cc1Nc1ncc2c(n1)N([C@@H]1CCC[C@@H](O)C1)C(=O)C21CC1 [Example 20, 4-((7′-((1R,3R)-3-hydroxycyclohexyl)-6′-oxo-6′,7′-dihydrospiro[cyclopropane-1,5′-pyrrolo[2,3-d]pyrimidin]-2′-yl)amino)-1H-pyrazole-3-carbonitrile]
